Measurements from PubChem BioAssay (NCI).
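Method: 48-hour compound exposure of cells in 96-well plates, five concentrations, linear interpolation of endpoints. GI50 = concentration required for 50% inhibition of growth. Definition used: TGI = concentration required for complete inhibition of growth.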

How the values were obtained:
Experiment in all cases: NCI tumour cell line growth inhibition, 48 h
MDA-MB-435 = system: MDA-MB-435
NCI-H226 lung = system: NCI-H226 lung
OVCAR-3 ovarian = system: OVCAR-3 ovarian
SK-MEL-5 melanoma = system: SK-MEL-5 melanoma
KM12 colon = system: KM12 colon
M14 melanoma = system: M14 melanoma
MCF7 breast = system: MCF7 breast
SW-620 colon = system: SW-620 colon
T-47D breast = system: T-47D breast
HCC-2998 colon = system: HCC-2998 colon
NCI/ADR-RES ovarian = system: NCI/ADR-RES ovarian
LOX IMVI melanoma = system: LOX IMVI melanoma
CCRF-CEM leukemia = system: CCRF-CEM leukemia
HT29 colon = system: HT29 colon
SNB-19 CNS = system: SNB-19 CNS
A549 NSCLC = system: A549 NSCLC
ACHN renal = system: ACHN renal
OVCAR-8 ovarian = system: OVCAR-8 ovarian
CAKI-1 renal = system: CAKI-1 renal
A498 renal = system: A498 renal
HCT-116 colon = system: HCT-116 colon
OVCAR-5 ovarian = system: OVCAR-5 ovarian
NCI-H522 lung = system: NCI-H522 lung
786-0 renal = system: 786-0 renal
SF-295 CNS = system: SF-295 CNS
EKVX NSCLC = system: EKVX NSCLC
MOLT-4 leukemia = system: MOLT-4 leukemia
MALME-3M melanoma = system: MALME-3M melanoma
NCI-H23 lung = system: NCI-H23 lung
OVCAR-4 ovarian = system: OVCAR-4 ovarian
K-562 leukemia = system: K-562 leukemia
TK-10 renal = system: TK-10 renal
UO-31 renal = system: UO-31 renal
RXF 393 renal = system: RXF 393 renal
SN12C renal = system: SN12C renal
SF-268 CNS = system: SF-268 CNS
UACC-257 melanoma = system: UACC-257 melanoma
HOP-92 NSCLC = system: HOP-92 NSCLC
BT-549 breast = system: BT-549 breast
SK-MEL-28 melanoma = system: SK-MEL-28 melanoma
SF-539 CNS = system: SF-539 CNS
HOP-62 NSCLC = system: HOP-62 NSCLC
SNB-75 CNS = system: SNB-75 CNS
SK-OV-3 ovarian = system: SK-OV-3 ovarian
IGROV1 ovarian = system: IGROV1 ovarian
NCI-H460 lung = system: NCI-H460 lung
RPMI-8226 leukemia = system: RPMI-8226 leukemia
COLO 205 colon = system: COLO 205 colon
DU-145 prostate = system: DU-145 prostate
UACC-62 melanoma = system: UACC-62 melanoma
SK-MEL-2 melanoma = system: SK-MEL-2 melanoma
U251 CNS = system: U251 CNS
MDA-MB-231 breast = system: MDA-MB-231 breast
PC-3 prostate = system: PC-3 prostate
SR leukemia = system: SR leukemia
HS 578T breast = system: HS 578T breast
HCT-15 colon = system: HCT-15 colon

CCN(CC)C(=S)SCN1C(=O)c2ccccc2S1(=O)=O
GI50 (MDA-MB-435): 60.9 µM
TGI (MDA-MB-435): > 100 µM
GI50 (NCI-H226 lung): 65.5 µM
TGI (NCI-H226 lung): > 100 µM
GI50 (OVCAR-3 ovarian): 34.3 µM
TGI (OVCAR-3 ovarian): > 100 µM
GI50 (SK-MEL-5 melanoma): 6.67 µM
TGI (SK-MEL-5 melanoma): > 100 µM
GI50 (KM12 colon): 14.4 µM
TGI (KM12 colon): > 100 µM
GI50 (M14 melanoma): 20.9 µM
TGI (M14 melanoma): > 82.5 µM
GI50 (MCF7 breast): 0.562 µM
TGI (MCF7 breast): > 100 µM
GI50 (SW-620 colon): 43 µM
TGI (SW-620 colon): > 100 µM
GI50 (T-47D breast): 36 µM
TGI (T-47D breast): > 100 µM
GI50 (HCC-2998 colon): 40.8 µM
TGI (HCC-2998 colon): > 78 µM
GI50 (NCI/ADR-RES ovarian): > 44.3 µM
TGI (NCI/ADR-RES ovarian): > 64.9 µM
GI50 (LOX IMVI melanoma): 29.5 µM
TGI (LOX IMVI melanoma): > 66.8 µM
GI50 (CCRF-CEM leukemia): < 0.01 µM
TGI (CCRF-CEM leukemia): 0.016 µM
GI50 (HT29 colon): 25.1 µM
TGI (HT29 colon): > 74.9 µM
GI50 (SNB-19 CNS): 78 µM
TGI (SNB-19 CNS): > 100 µM
GI50 (A549 NSCLC): 41.2 µM
TGI (A549 NSCLC): > 100 µM
GI50 (ACHN renal): 64.6 µM
TGI (ACHN renal): > 100 µM
GI50 (OVCAR-8 ovarian): > 57.9 µM
TGI (OVCAR-8 ovarian): > 100 µM
GI50 (CAKI-1 renal): > 70.5 µM
TGI (CAKI-1 renal): > 100 µM
GI50 (A498 renal): 42.9 µM
TGI (A498 renal): > 100 µM
GI50 (HCT-116 colon): 54.2 µM
TGI (HCT-116 colon): > 100 µM
GI50 (OVCAR-5 ovarian): > 68.4 µM
TGI (OVCAR-5 ovarian): > 100 µM
GI50 (NCI-H522 lung): 0.391 µM
TGI (NCI-H522 lung): > 45 µM
GI50 (786-0 renal): 31.4 µM
TGI (786-0 renal): > 100 µM
GI50 (SF-295 CNS): > 67.2 µM
TGI (SF-295 CNS): > 100 µM
GI50 (EKVX NSCLC): > 100 µM
TGI (EKVX NSCLC): > 100 µM
GI50 (MOLT-4 leukemia): 23.9 µM
TGI (MOLT-4 leukemia): > 100 µM
GI50 (MALME-3M melanoma): > 48.7 µM
TGI (MALME-3M melanoma): 97.6 µM
GI50 (NCI-H23 lung): 45.5 µM
TGI (NCI-H23 lung): > 91.1 µM
GI50 (OVCAR-4 ovarian): 35.4 µM
TGI (OVCAR-4 ovarian): > 100 µM
GI50 (K-562 leukemia): 24 µM
TGI (K-562 leukemia): > 100 µM
GI50 (TK-10 renal): > 52.4 µM
TGI (TK-10 renal): > 100 µM
GI50 (UO-31 renal): 53.9 µM
TGI (UO-31 renal): > 100 µM
GI50 (RXF 393 renal): > 51.3 µM
TGI (RXF 393 renal): > 80.1 µM
GI50 (SN12C renal): 53.7 µM
TGI (SN12C renal): > 100 µM
GI50 (SF-268 CNS): 34.2 µM
TGI (SF-268 CNS): > 100 µM
GI50 (UACC-257 melanoma): 56.3 µM
TGI (UACC-257 melanoma): > 100 µM
GI50 (HOP-92 NSCLC): > 100 µM
TGI (HOP-92 NSCLC): > 100 µM
GI50 (BT-549 breast): 63.4 µM
TGI (BT-549 breast): > 100 µM
GI50 (SK-MEL-28 melanoma): 31 µM
TGI (SK-MEL-28 melanoma): > 85.1 µM
GI50 (SF-539 CNS): 41.7 µM
TGI (SF-539 CNS): > 100 µM
GI50 (HOP-62 NSCLC): 39.3 µM
TGI (HOP-62 NSCLC): > 100 µM
GI50 (SNB-75 CNS): 46.7 µM
TGI (SNB-75 CNS): > 91.5 µM
GI50 (SK-OV-3 ovarian): > 100 µM
TGI (SK-OV-3 ovarian): > 100 µM
GI50 (IGROV1 ovarian): 55.2 µM
TGI (IGROV1 ovarian): > 100 µM
GI50 (NCI-H460 lung): 0.928 µM
TGI (NCI-H460 lung): > 100 µM
GI50 (RPMI-8226 leukemia): < 0.01 µM
GI50 (COLO 205 colon): 33.2 µM
TGI (COLO 205 colon): > 100 µM
GI50 (DU-145 prostate): 29.4 µM
TGI (DU-145 prostate): > 100 µM
GI50 (UACC-62 melanoma): 3.02 µM
GI50 (SK-MEL-2 melanoma): > 94.4 µM
TGI (SK-MEL-2 melanoma): > 100 µM
GI50 (U251 CNS): 52.5 µM
TGI (U251 CNS): > 100 µM
GI50 (MDA-MB-231 breast): 50.9 µM
TGI (MDA-MB-231 breast): > 100 µM
GI50 (PC-3 prostate): 4.9 µM
TGI (PC-3 prostate): > 100 µM
GI50 (SR leukemia): < 0.01 µM
TGI (SR leukemia): 27.7 µM
GI50 (HS 578T breast): > 100 µM
TGI (HS 578T breast): > 100 µM
GI50 (HCT-15 colon): 50.9 µM
TGI (HCT-15 colon): > 100 µM
